Several values for one entry are separate records, joined by “and”; a condition that tells them apart may be missing. Equal values may be shown once.
Key:
MMP-1 = assay: Inhibition test of matrix metalloproteinase expression in UVB-irradiated fibroblast Hs68 (western blotting): MMP-1; assay type: cell-based, human; settings: expression relative to control group (1.00); UVB 40 mJ/cm^2, Hs68; 10 μg/mL
Protocol: (§1) A total of 5×10^5 fibroblast Hs68 (human foreskin fibroblast, Bioresource Collection and Research Center (BCRC) number:60038, purchased from Food Industry Research and Development Institute (FIRDI)) was counted and cultivated in a culture medium (90% Dulbecco's modified Eagle's medium adjusted with 4 mM of L-glutamine, containing 1.5 g/L NaHCO3, 4.5 g/L glucose, and 10% heat-inactivated fetal bovine serum) with a diameter of 10 cm. After the fibroblast Hs68 grew to a density of 80%, the culture solution was removed, and the cells were rinsed with 5 mL of a phosphate buffer saline (PBS) solution once. Then, 3 mL of a phenol red-free culture solution containing the Neonauclea reticulata leaf water extract with different concentrations ([…]) was added into the culture medium, and was reacted for 1 hour. The cells were placed under ultraviolet light (40 mJ/cm^2, Ultraviolet B (UVB)) for irradiation. […] Using luminescence imaging technology with an associated analysis software and LAS-4000 (FUJIFILM) to record the image, and a quantitative analysis was carried out by multi Gauge […] […]

MMP-3 = assay: Inhibition test of matrix metalloproteinase expression in UVB-irradiated fibroblast Hs68 (western blotting): MMP-3; assay type: cell-based, human; settings: expression relative to control group (1.00); UVB 40 mJ/cm^2, Hs68; 10 μg/mL
Protocol: as §1

MMP-9 = assay: Inhibition test of matrix metalloproteinase expression in UVB-irradiated fibroblast Hs68 (western blotting): MMP-9; assay type: cell-based, human; settings: expression relative to control group (1.00); UVB 40 mJ/cm^2, Hs68; 10 μg/mL
Protocol: as §1

[1] = Anti-oxidation test: DPPH free radicals removal test; assay type: biochemical; settings: DPPH scavenging, 50 μg/mL
Protocol: A 100 μL of the Neonauclea reticulata leaf water extract, methanol extract, or the hydrolytes thereof with different concentrations (10 to 100 μg/mL) and a 100 μL. DPPH solution (200 μM) dissolved in methanol were added in a 96-well microplate, and were mixed evenly and placed under 37° C. away from light for 30 minutes. The absorbance of the mixture was determined by an enzyme immunoassay instrument under a wavelength of 517 nm. In this test, the extract was replaced by 50 vol % propylene glycol as the control group, and ascorbic acid (vitamin C) was used as a positive control group, and DPPH was replaced by methanol for determining the background value. The ability of the Neonauclea reticulata leaf extract to remove free radicals was calculated by the following formula. The results are shown in Table 5 to Table 7 and FIG. 12 to FIG. 14. [formula]

Compound | MMP-1 (MMP-1) | MMP-3 (MMP-3) | MMP-9 (MMP-9) | Inhibition ([1]; Table 5) | Inhibition Rate ([1]; Tables 6 and 7)
O=C(O[C@@H]1Cc2c(O)cc(O)cc2O[C@@H]1c1cc(O)c(O)c(O)c1)c1cc(O)c(O)c(O)c1 [EGCG] | 1.10 ± 0.15 | 1.15 ± 0.16 | 0.95 ± 0.26 | – | –
O=C1O[C@H]([C@@H](O)CO)C(O)=C1O [Vitamin C, ascorbic acid] | – | – | – | 98.60 ± 0.32 | 88.36 ± 2.71 and 97.99 ± 0.12

— patent publication US8349371B2, “Method for anti-oxidation, inhibiting activity and/or expression of matrix metalloproteinase, and/or inhibiting phosphorylation of mitogen-activated protein kinase using neonauclea reticulata leaf extracts” (China Medical University, priority 2010, dated 2013)
